Results as given in paper PMC5013553, “A substrate-driven allosteric switch that enhances PDI catalytic activity” (Nature Communications, 2016).

Assays:
[1] = biological target: T1, Protein disulfide isomerase (PDI) (Homo sapiens, UniProt P07237); test: insulin turbidimetric and di-eosin-GSSG reductase assays; type: biochemical; parameters: gene P4HB; full-length PDI
[2] = biological target: T2, Protein disulfide isomerase (PDI) (Homo sapiens, UniProt P07237, I289A); test: ANS fluorescence binding (λex […] nm), displaced by bepristats, absent with I272A
T2 construct: gene P4HB; isolated b′x domain; full-length PDI
T2 sequence (P07237 236-367 I289A limits assumed): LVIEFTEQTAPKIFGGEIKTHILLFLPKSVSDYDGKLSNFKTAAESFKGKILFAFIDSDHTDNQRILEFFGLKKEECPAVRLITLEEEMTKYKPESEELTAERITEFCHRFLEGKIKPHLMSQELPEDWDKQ

[3] = biological target: T1, Protein disulfide isomerase (PDI); test: insulin turbidimetric reductase assay; ANS displacement from PDI and b′x, intrinsic Trp fluorescence, domain mapping; type: biochemical; parameters: gene P4HB; full-length PDI; also abb′ (residues 1–331), b′xa′ (residues 219–462) and b′x

T1 sequence (P07237 18-508): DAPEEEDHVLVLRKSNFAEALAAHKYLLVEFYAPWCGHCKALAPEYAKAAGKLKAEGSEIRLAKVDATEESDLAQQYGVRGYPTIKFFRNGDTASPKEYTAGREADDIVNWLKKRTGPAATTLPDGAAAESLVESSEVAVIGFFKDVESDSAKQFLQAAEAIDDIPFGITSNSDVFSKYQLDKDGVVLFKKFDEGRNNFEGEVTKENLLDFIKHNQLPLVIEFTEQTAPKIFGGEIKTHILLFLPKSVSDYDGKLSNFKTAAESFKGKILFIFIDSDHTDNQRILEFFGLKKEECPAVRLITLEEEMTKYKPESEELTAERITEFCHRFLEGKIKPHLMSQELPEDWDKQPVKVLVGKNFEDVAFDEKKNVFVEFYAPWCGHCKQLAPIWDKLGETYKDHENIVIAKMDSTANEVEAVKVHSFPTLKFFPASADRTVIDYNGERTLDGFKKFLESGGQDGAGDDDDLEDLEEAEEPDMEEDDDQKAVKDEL

IC50 [3] [µM] | Molecule | also measured
 | C[C@@H]1O[C@@H](OC[C@H]2O[C@@H](Oc3c(-c4ccc(O)c(O)c4)oc4cc(O)cc(O)c4c3=O)[C@H](O)[C@@H](O)[C@@H]2O)[C@H](O)[C@H](O)[C@H]1O [Q-3-R, quercetin-3-rutinoside] | insulin turbidimetric and di-eosin-GSSG reductase assays [1]: these other inhibitors all blocked PDI-mediated cleavage of di-eosin-GSSG when used at concentrations required to inhibit activity
 | O=S(=O)(O)c1cccc2cccc(Nc3ccccc3)c12 [ANS, 1-anilinonaphthalene-8-sulfonic acid] | ANS fluorescence binding (λex 370 nm), displaced by bepristats, absent with I272 [2]: ANS fluorescence was prominent on incubation with the isolated b′x domain and weak on incubation with isolated a, a′
~1.2 | bepristat 2a | 
~0.7 | CCN(C)C(=O)C1(CCOc2ccccc2)CCN(Cc2ccc(O)c(Cl)c2)CC1 [bepristat 1a] | 
